Converted amounts (≈) assume the structure as drawn. “Also recorded” adds a separate entry of the source. Read-outs that look alike come from different tables or passages of the source.
Tests used:
[1] = test system: caspase 3/7 in HT-29 cells; experiment: Caspase-Glo 3/7 Assay; type: cell-based, human; conditions: HT-29, 50 µg/mL; for caspase 3/7 activation: measured at 6, 12, 24 and 48 h
Procedure: The activity of two effector caspases 3 and 7 was analyzed using the Caspase-Glo 3/7 Assay (Promega) according to the recommendations of the manufacturer. The cells were seeded at a density of 1 × 10^4 per well for the test on a 96-well plate. Then, cells were incubated with A2, B2, A9, B9 and NG at a concentration of 50 µg/mL for 48 h. Half an hour before each measurement of caspase activity, an equal volume of Caspase-Glo 3/7 substrate solution was added to cells. The luminescence signals were detected using a GloMax Discover Microplate Reader at the 6th, 12th, 24th and 48th hours of the experiment. The reactions for each sample were repeated in triplicate and presented as the mean value.

[2] = test system: HT-29 cells; experiment: RealTime-Glo Annexin V Apoptosis and Necrosis Assay; type: cell-based, human; conditions: for annexin V luminescence and necrosis fluorescence signals versus untreated cells: HT-29, during 12 h incubation, applied concentrations 10-100 µg/mL
Procedure: The process of apoptosis was determined using the RealTime-Glo Annexin V Apoptosis and Necrosis Assay (Promega) according to the manufacturer’s protocol. Briefly, 1 × 10^4 HT-29 cells were seeded into a single well of a 96-well plate. After overnight incubation, the cells were treated with 10, 25, 50 and 100 µg/mL of the investigated compounds and detection reagent for 24 h. As a negative control, untreated cells were used. The luminescence, fluorescence and OD525 signals were detected at each hour of the first 12 h of incubation. The end measurement was performed at the 24th hour of the experiment. All samples were prepared in triplicate, and then their means were calculated.

[3] = test system: HT-29 cells; experiment: MTT assay, cell viability; type: cell-based, human; conditions: 24 h; for effect on colon adenocarcinoma cells (viability, MTT): HT-29, highest concentration 100 µg/mL
Procedure: (§1) The HT-29 cells (ATCC, Manassas, VA, USA) were cultured within α-MEM (IIET PAS, Wrocław, Poland) supplemented with 10% fetal bovine serum (Sigma, St. Louis, MO, USA), antimycotic (100 μg/mL penicillin, 100 μg/mL streptomycin and 0.25 μg/mL amphotericin) (Sigma) and 2 mM glutamine (Sigma). The 3T3-L1 cells (ATCC, Manassas, VA, USA) were cultivated using DMEM high-glucose medium (IIET PAS, Wrocław, Poland) supplemented as above. Both cell lines were cultured at 37 °C in an atmosphere of 5% CO2.
First, 1 × 10^4 HT-29 cells or 5 × 10^3 3T3-L1 cells were seeded into a 96-well plate and incubated for one night. Then, cells were treated with different concentrations of the investigated compounds within 24 h. Afterwards, the medium was replaced with a fresh medium containing 0.5 mg/mL of 3-(4,5-dimethylthiazol-2-yl)-2,5-diphenyl-2H-tetrazolium bromide (MTT, Sigma) and incubated for 2 h at 37 °C. After removing the medium, the formazan salts were dissolved in dimethyl sulfoxide (DMSO, Sigma), and the absorbance of the solution was measured at 560 nm using a plate reader.

[4] = test system: Escherichia coli K12; experiment: MBC assay; type: cell-based; conditions: E. coli K12
Procedure: (§2) The minimum bactericidal concentration (MBC) was tested for all naringenin derivatives. First, 10 µL of medium was taken from the plate, on which the MIC was determined for the MIC value, the value below and the two values above. This volume was transferred to TSA or MC agar. After 18–24 h (depending on strain) incubation at 37 °C, colonies were counted. The concentration of test compounds at which no bacterial growth was observed was defined as the MBC value. Each experiment was repeated 3 times.

[5] = test system: Staphylococcus aureus ATCC 25923; experiment: MBC assay; type: cell-based; conditions: Staphylococcus aureus, ATCC25923; S. aureus ATCC 25923; read-out: MBC
Procedure: as §2

[6] = test system: Enterococcus faecalis ATCC 29212; experiment: MBC assay; type: cell-based; conditions: Enterococcus faecalis, ATCC29212; E. faecalis ATCC 29212; read-out: MBC
Procedure: as §2

[7] = SRB assay, cytotoxicity; type: cell-based, human; conditions: human, HT-29 cells; HT-29, SRB, 24 h exposure, three independent repeats; read-out: Cytotoxicity (IC50 ± SD)
Procedure: as §1
(§3) The sulforhodamine B (SRB) assay was performed according to a previously published protocol. Briefly, 1 × 10^4 HT-29 or 5 × 10^3 3T3-L1 cells were seeded into 96-well plates. After attaching to the plate surface, the cells were incubated with 100, 75, 50, 25, 10 or 1 µg/mL of the investigated compounds for 24 h. After this time, proteins were precipitated with trichloroacetic acid and stained with SRB. The absorbance was measured at 560 nm using a GloMax Discover Microplate Reader (Promega, Madison, WI, USA).

[8] = SRB assay, cytotoxicity; type: cell-based, mouse; conditions: mouse, 3T3-L1 cells; 3T3-L1, SRB, 24 h exposure, three independent repeats; read-out: Cytotoxicity (IC50 ± SD)
Procedure: as §1, §3

[9] = test system: Escherichia coli K12; experiment: MIC, microdilution method; type: cell-based; conditions: E. coli K12, MHB, 18 h, 37 °C, tested 512 to 1 µg/mL
Procedure: (§4) Non-pathogenic reference strains representing the intestinal microbiome were used for the studies: Escherichia coli K12, Staphylococcus aureus ATCC 25923 and Enterococcus faecalis ATCC 29212. All strains were obtained from the collection of the Department of Microbiology at the Medical University of Wrocław.
(§5) The strains were received from the museum (−80 °C) and grown in tryptic soy broth (TSB, OXOID, Basingstoke, UK) under continuous shaking conditions (MaxQTM6000 incubator shaker, Thermo Scientific, Waltham, MA, USA) at 125 rpm at 37 °C. Then, they were moved to the growth media, namely tryptic soy agar (TSA, OXOID, Basingstoke, UK) and MacConkey agar (MC, Millipore, Darmstadt, Germany) for S. aureus or E. faecalis and E. coli, respectively.
(§6) A fresh 18–24 h culture was used for each study. For this purpose, a culture with a density of 1.5 × 10^8 CFU/mL in Mueller–Hinton broth (MHB, OXOID, Basingstoke, UK) was prepared and used for further microdilution studies.
(§7) The antimicrobial activity of the O-alkyl derivatives of naringenin and their oximes was tested in vitro using the microdilution method, showing the minimum inhibitory concentration (MIC), in accordance with the recommendations of the European Antimicrobial Susceptibility Testing Committee EUCAST [44]. MICs were determined in 96-well microdilution plates. The tests were carried out in MHB medium. The O-alkyl derivatives of naringenin and their oximes were tested in the concentration range of 512 to 1 µg/mL in a geometric process in MHB medium. The final concentration of the test strains in each test well was 5 × 10^5 CFU/mL. MICs were read after 18 h (for E. coli and S. aureus) and 24 h (for E. faecalis) incubation at 37 °C.
(§8) A strain growth control (tested strain in medium), background control for tested compounds (naringenin derivatives in MHB), medium control (only pure MHB) and compound solvent control (DMSO at test compound concentration, strain and MHB) were set for each experiment. Each test was set up with three independent experiments, each as three separate replicates.
(§9) The […], OD600, was measured in a plate reader (ASYS UVM340, BIOCHROM Ltd., Cambridge, UK). The background control of the tested compounds and the clean medium were included in the absorbance results.

[10] = test system: Staphylococcus aureus ATCC 25923; experiment: MIC, microdilution method; type: cell-based; conditions: S. aureus ATCC 25923, MHB, 18 h, 37 °C, tested 512 to 1 µg/mL
Procedure: as §4, §5, §6, §7, §8, §9

[11] = test system: Enterococcus faecalis ATCC 29212; experiment: MIC, microdilution method; type: cell-based; conditions: E. faecalis ATCC 29212, MHB, 24 h, 37 °C, tested 512 to 1 µg/mL
Procedure: as §4, §5, §6, §7, §8, §9

[12] = Escherichia coli, read-out: MBC
[13] = Escherichia coli, read-out: MIC
[14] = Staphylococcus aureus, ATCC25923, read-out: MIC
[15] = Enterococcus faecalis, ATCC29212, read-out: MIC

Compound	caspase 3/7 activation [1]	annexin V luminescence and necrosis fluorescence signals versus untreated cells [2]	effect on colon adenocarcinoma cells (viability, MTT) [3]	MBC [4, 12]	MBC [5]	MBC [6]	IC50 at 24 h [7]	IC50 at 24 h [8]	MIC [9, 13]	MIC [10]	MIC [10, 14]	MIC [11, 15]	melting point	MIC [11]	time of caspase 3/7 activation [1]	onset of loss of membrane integrity (fluorescence signal), time shift with respect to luminescence ([2]; HT-29, 50 µg/mL)	phosphatidylserine exposure (luminescent signal) on the outer side of the cell membrane ([2]; HT-29, 50 µg/mL)	reduction in cell viability ([3]; HT-29, MTT, 10 µg/mL dose)	MBC [4]	MIC [9]
CCCCCCOc1ccc([C@@H]2CC(=O)c3c(O)cc(OCCCCCC)cc3O2)cc1 [A2, 7,4′-di-O-hexylnaringenin]	neither membrane switching of phosphatidylserine nor caspase activation was observed	both signals were similar to those for untreated cells	weak	> 512 µg/mL	> 512 µg/mL	> 512 µg/mL	> 100 µg/mL	> 100 µg/mL	> 512 µg/mL	>512 (>512) µg/mL	> 512 µg/mL	64 µg/mL (≈ 145 µM)								
CCCCCCCCCCCOc1cc(O)c2c(c1)O[C@H](c1ccc(O)cc1)CC2=O [A9, 7-O-Undecylnaringenin]	significant caspase 3/7 activation was also detected	both signals were similar to those for untreated cells	completely inhibited	> 512 µg/mL	> 512 µg/mL	> 512 µg/mL	17.9 ± 0.65 µg/mL (≈ 41.8 µM)	10.2 ± 0.2 µg/mL (≈ 23.8 µM)	> 512 µg/mL	>512 (>512) µg/mL	> 512 µg/mL	512 µg/mL (≈ 1200 µM)	103 to 104 °C	512 (>512) µg/mL						
CCCCCCOc1ccc([C@@H]2CC(=NO)c3c(O)cc(OCCCCCC)cc3O2)cc1 [B2, 7,4′-di-O-hexylnaringenin oxime]	neither membrane switching of phosphatidylserine nor caspase activation was observed	both signals were similar to those for untreated cells		> 512 µg/mL	> 512 µg/mL	> 512 µg/mL	49.8 ± 1.63 µg/mL (≈ 109 µM)	10.1 ± 6.49 µg/mL (≈ 22.1 µM)	> 512 µg/mL		> 512 µg/mL	> 512 µg/mL		>512 (>512) µg/mL						
CCCCCCCCCCCOc1cc(O)c2c(c1)O[C@H](c1ccc(O)cc1)CC2=NO [B9, 7-O-Undecylnaringenin oxime]	rapid activation of caspase 3/7			> 512 µg/mL	> 512 µg/mL	> 512 µg/mL	11.4 ± 1.17 µg/mL (≈ 25.9 µM)	6.74 ± 0.84 µg/mL (≈ 15.3 µM)	> 512 µg/mL	>512 (>512) µg/mL	> 512 µg/mL	256 µg/mL (≈ 580 µM)	171 to 173 °C		≤ 12 h	more than 5 h	significantly increased; also recorded: increased the level of phosphatidylserine	more than 50%		
O=C1C[C@@H](c2ccc(O)cc2)Oc2cc(O)cc(O)c21 [NG, naringenin]	neither membrane switching of phosphatidylserine nor caspase activation was observed	both signals were similar to those for untreated cells	weak	> 512 µg/mL	> 512 µg/mL	> 512 µg/mL	> 100 µg/mL	> 100 µg/mL	512 µg/mL (≈ 1880 µM)		512 µg/mL (≈ 1880 µM)	> 512 µg/mL							> 512 µg/mL	512 µg/mL (≈ 1880 µM)
